The subject of data set [1] is F98/hNIS gliomas. The data set can be described thus: 99mTcO4 scintigraphy of intracerebral F98/hNIS gliomas. It counts as in vivo, rat. As to conditions: about 20 min after tail vein injection. As for the experimental part:
(§1) Fischer rats weighing 175 to 200 grams (Harlan Sprague Dawley, Indianapolis, Ind.) were stereotactically implanted with tumor cells.^11,21 The tumor cells were either F98 cells or F98 cells which had been infected with and expressed a wild-type NIS protein (see Example 1). All experimental procedures received approval from Institutional Laboratory Animal Care and Use Committee of the Ohio State University. Briefly, rats were sedated by intraperitoneal (i.p.) administration of 120 mg of ketamine/20 mg of xylazine (Fort Dodge, Fort Dodge, IA) per kg of body weight, after which a plastic screw (Arrow Machine Manufacturing, Inc., Richmond, VA) was embedded into the cranium. F98 cells were injected within 10 to 15 seconds through a central hole in the plastic screw into the right hemisphere at a concentration of 10^3 (for therapeutic study) or 10^5 (for imaging study) cells in 10 μl of serum-free DMEM containing 1.4% agarose with a gelling temperature of <30° C. The screw hole was filled with bone wax immediately following withdrawal of the needle, and the operative field was flushed with betadine before the scalp incision was closed with a single sterilized clip.
(§2) Rats were anesthetized by i.p. injection of ketamine/xylazine, and then 2.0 mCi of ^99mTcO4 in 0.2 ml volume was administered via tail vein injection. […]

The test system of a further data set is parental F98 tumors. The data set can be described thus: 99mTcO4 scintigraphy of intracerebral parental F98 tumors. It counts as in vivo, rat. The following applies: about 20 min after tail vein injection. As for the experimental part:
as §1, §2

The subject of data set [2] is F98/hNIS gliomas. The experiment in a line: serial 123I scintigraphy, radioiodide retention in tumor. The format is in vivo, rat. As for the experimental part: as §1
Serial ^123I images were obtained to determine the retention of radioiodide in the hNIS-transduced tumors (FIG. 7A). The average survival time for rats implanted with 10^5 F98/hNIS glioma cells was about 14-16 days. For studies of ^123I retention, images were acquired on days 13 to 15 following tumor implantation at which time ^123I (0.25 mCi) was administered via tail vein injection. Modified conjugate images were obtained sequentially with the rat first in dorsal-ventral and then ventral-dorsal positions on the top of the LEUHR collimator at 5 min, 20 min, 1 hr, 4 hr, 24 hr, and 37 hr following injection. […] Regions of interest (ROI) were drawn over the tumor, thyroid, and shoulder region (as a background) in two views (vertex and then ventral) of pinhole images for each different time point, and the geometric means of the count rates (counts/pixel) for each ROI in each view were calculated. […]

The nature of data set [3]: serial 123I scintigraphy, radioiodide retention in thyroid. It counts as in vivo, rat. The following applies: in the thyroid, from time activity curve, tail vein injection. As for the experimental part: Serial ^123I images were obtained to determine the retention of radioiodide in the hNIS-transduced tumors (FIG. 7A). The average survival time for rats implanted with 10^5 F98/hNIS glioma cells was about 14-16 days. For studies of ^123I retention, images were acquired on days 13 to 15 following tumor implantation at which time ^123I (0.25 mCi) was administered via tail vein injection. Modified conjugate images were obtained sequentially with the rat first in dorsal-ventral and then ventral-dorsal positions on the top of the LEUHR collimator at 5 min, 20 min, 1 hr, 4 hr, 24 hr, and 37 hr following injection. The acquisition time at 5 min post-injection image was 5 min, and the acquisition times at subsequent time points were corrected for the physical decay of ^123I. Regions of interest (ROI) were drawn over the tumor, thyroid, and shoulder region (as a background) in two views (vertex and then ventral) of pinhole images for each different time point, and the geometric means of the count rates (counts/pixel) for each ROI in each view were calculated. Biological half-life of radioiodine was estimated based on the time activity curve generated by plotting the tumor ROI count rates versus time.

A further data set relates to F98/hNIS tumors. The data set can be described thus: 131I therapy study, intracerebral hNIS-transduced tumors. The format is in vivo, rat. As for the experimental part:
as §1
For ^131I therapy studies, rats were implanted stereotatically with 1×10^3 F98 cells on day 0, and the animals were divided into 3 groups: empty vector transduced tumors with ^131I treatment (F98/LXSN+^131I), hNIS transduced tumors without ^131I treatment (F98/hNIS—^131I), hNIS transduced tumors with ^131I treatment (F98/hNIS+^131I). Each group contained 12 rats. To minimize exposure of the thyroid gland to ^131I, rats were placed on 1 ppm thyroxine (T4)-supplemented diet (Harlan Teklad, Madison, Wis.) beginning one week prior to the first day of ^131I treatment. Animals received three i.p. injections, 4 mCi of ^131I per injection, on days 12, 14 and 16 post-implantation for a total of 12 mCi. The tumor size index on day 14 was assumed to be ˜2 mm^2 based on a previous study.^18 Animals were weighed three times per week. […] Therefore, animals displaying these signs were sacrificed, and survival times were determined from the day of tumor implantation to the day of sacrifice plus 1 day.^21,24 The observers were not blinded to sacrifice the rats. To confirm that all animals had progressively growing tumors at the time of death, the brains were removed, fixed in 10% neutral buffered formalin, and then 2-mm coronal sections were cut with a rat brain slicer (Zivic-Miller Laboratories, Inc., Allison Park, PA), and processed for routine histopathological examination. Tumor size was measured as (the longest length)×(the length perpendicular to the longest length) in tumor sections. Survival among different experimental groups was compared using unpaired t test as well as Log-rank test. Tumor sizes among different experimental groups were compared using unpaired t test. The P value of <0.05 were considered statistically significant.

The next data set concerns F98/LXSN tumors. The experiment in a line: 131I therapy study, intracerebral empty vector transduced tumors. It counts as in vivo, rat. As for the experimental part:
as §1
For ^131I therapy studies, rats were implanted stereotatically with 1×10^3 F98 cells on day 0, and the animals were divided into 3 groups: empty vector transduced tumors with ^131I treatment (F98/LXSN+^131I), hNIS transduced tumors without ^131I treatment (F98/hNIS—^131I), hNIS transduced tumors with ^131I treatment (F98/hNIS+^131I). Each group contained 12 rats. To minimize exposure of the thyroid gland to ^131I, rats were placed on 1 ppm thyroxine (T4)-supplemented diet (Harlan Teklad, Madison, Wis.) beginning one week prior to the first day of ^131I treatment. […] Therefore, animals displaying these signs were sacrificed, and survival times were determined from the day of tumor implantation to the day of sacrifice plus 1 day.^21,24 The observers were not blinded to sacrifice the rats. […] Tumor size was measured as (the longest length)×(the length perpendicular to the longest length) in tumor sections. […]

For the next data set, the target named is T1, hNIS (Homo sapiens, UniProt Q92911).
T1 construct: expressed in transfected cells; host or cells: F98 rat glioma cells infected with L-hNIS-SN recombinant retrovirus, G418-selected clone
T1 sequence (Q92911 1-643): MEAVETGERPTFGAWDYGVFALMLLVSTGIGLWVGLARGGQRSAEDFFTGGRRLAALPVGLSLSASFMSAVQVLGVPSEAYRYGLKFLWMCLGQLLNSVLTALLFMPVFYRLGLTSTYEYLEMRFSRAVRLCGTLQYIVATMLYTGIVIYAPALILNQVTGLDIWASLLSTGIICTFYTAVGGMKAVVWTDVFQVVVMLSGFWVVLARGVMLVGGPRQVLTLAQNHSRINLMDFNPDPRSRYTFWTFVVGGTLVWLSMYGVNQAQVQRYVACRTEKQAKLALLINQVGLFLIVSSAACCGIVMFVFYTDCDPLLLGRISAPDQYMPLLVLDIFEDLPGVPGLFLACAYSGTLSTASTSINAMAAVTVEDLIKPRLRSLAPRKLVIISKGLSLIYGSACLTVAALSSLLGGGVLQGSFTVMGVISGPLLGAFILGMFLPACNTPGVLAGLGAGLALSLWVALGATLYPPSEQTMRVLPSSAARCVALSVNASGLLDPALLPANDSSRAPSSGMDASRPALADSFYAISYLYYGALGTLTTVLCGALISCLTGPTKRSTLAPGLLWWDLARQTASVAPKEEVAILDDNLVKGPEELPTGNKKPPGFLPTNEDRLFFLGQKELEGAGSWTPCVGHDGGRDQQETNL
The experiment in a line: inhibition of induced RAIU in hNIS-transduced F98 cells. The format is cell-based. As for the experimental part: NIS function in the hNIS-transduced F98 glioma cells was tested in vitro by radioiodide uptake assay^5 (RAIU). Cells (2×10^5 cells per well) were seeded in 24-well plates. At various times after seeding, the cells were incubated for 30 min at 37° C., 5.0% CO2 with growth media containing 2.0 μCi Na ^125I and 5-10 μM NaI carrier. The medium was aspirated and cells were quickly washed twice with ice-cold Hank's balanced salt solution (HBSS). Cells were then lysed by incubation with 95% ethanol. The radioactivity of the cell lysate was measured by a γ-counter (Packard Instruments, Downers Grove, Ill., USA). Experiments were performed in triplicate. The RAIU activity of the infected cells was expressed in terms of fold increase compared with that of mock-infected parental cells.

Data set [4] relates to endogenous rat NIS in thyroid. The experiment in a line: thyroid 99mTcO4 scintigraphy and NIS Western blot in rats fed T4-supplemented diet. The format is in vivo. As for the experimental part:
Western blot analysis was performed as previously described.^23 Briefly, the tumors were removed from the animals and homogenized in a homogenizing buffer (10 mM Tris-HCl (pH 7.5), 5 mM NaCl, 1 mM EDTA, 0.1 mM PMSF, 50 μg/ml leupeptin) containing 0.25 M sucrose. The lysates were centrifuged at 700 g for 10 min at 4° C. The supernatants were further centrifuged at 200,000 g for 60-90 min at 4° C. to obtain membrane fractions, which were resuspended in homogenizing buffer without sucrose and kept at −80° C. until use. The membrane fractions ([…] per lane) were solubilized for 30 min at 37° C. in the same volume of reducing sample buffer (0.125 M Tris-HCl (pH 6.8), 4% SDS, 10% β-mercaptoethanol, 20% glycerol) and subjected to 4-20% gradient or 7.5% SDS-PAGE. The proteins were transferred on to a nitrocellulose filter which was then blocked with 5% nonfat dry mild in TBST buffer (10 mM Tris-HCl (pH 8.0), 150 mM NaCl, 0.1% Tween 20) at 4° C. overnight. […]
Rats fed a T4-supplemented diet were expected to have reduced RAIU in thyroid, as the endogenous NIS expression and activity in thyroid tissues is TSH-dependent. […] In comparison, thyroid was readily detectable by ^99mTcO4 scintigraphy in rats fed a normal diet. […]
On the technique in general: A western blot detects proteins with antibodies after separation by electrophoresis.

Where [5] appears, read: F98/hNIS with 131I treatment group.
Setting [6] is: F98/LXSN with 131I treatment group.

From patent US20060004191A1, “Modified sodium iodide symporter proteins and genes for imaging and cancer therapy” (priority 2002, published 2006) come the findings set out here.

Entries after “also recorded” stand apart in the source; their conditions may differ.

Consider `[O]=[99Tc](=[O])(=[O])[O-]` [99mTcO4], for which the “99mTcO4 uptake in tumor” value was “intense” with F98/hNIS gliomas [1] and “no ^99mTcO4 uptake was found” in the data set on parental F98 tumors.

Consider `[123IH]` [123I], for which, in the data set on F98/hNIS gliomas [2] (F98/hNIS gliomas, by 37 hours post-injection), the “123I uptake in tumor” value is “barely detectable”. Further, the “radioiodide uptake in tumor” value in the data set on F98/hNIS gliomas [2] (F98/hNIS gliomas, through 24 hrs post-injection) is “evident”. Moreover, the “biological half-life of 123I” value with F98/hNIS gliomas [2] (in F98/hNIS gliomas, from time activity curve, tail vein injection) is recorded as 10 hours; in data set [3], “greater than 20 hours”.

For `[131IH]` [131I], the average survival time stood at 45 ± 8.6 days in the data set on F98/hNIS tumors (F98/hNIS tumors with 131I treatment, 3 i.p. injections, total 12 mCi) and 30.4 ± 3.2 days in the data set on F98/LXSN tumors (F98/LXSN tumors with 131I treatment, 3 i.p. injections, total 12 mCi). Also, the “prolongation of average survival time” value with F98/hNIS tumors (F98/hNIS with 131I compared to F98/LXSN with 131I, P<0.01) is on record as around 2 weeks; with F98/hNIS tumors (F98/hNIS with 131I compared to F98/hNIS without 131I, P<0.05), 6 days. Besides, the “tumor size at sacrifice, length perpendicular to the longest length” value with F98/hNIS tumors (setting [5]) amounted to 6.1±1.5 mm; in the data set with F98/LXSN tumors (setting [6]) it was 6.4±1.6 mm. Also, the figures for the “tumor size at sacrifice, longest length” value in the data set with F98/hNIS tumors (setting [5]) and with F98/LXSN tumors (setting [6]) were 8.5±1.9 mm and 8.7±1.6 mm, respectively.

Regarding `[O-][Cl+3]([O-])([O-])O` [NaClO4, sodium perchlorate], the “effect on induced RAIU” value on hNIS is on record as “suppressed; also recorded: inhibited”.

Take `N[C@@H](Cc1cc(I)c(Oc2cc(I)c(O)c(I)c2)c(I)c1)C(=O)O` [T4, thyroxine]: the “NIS glycoprotein in thyroid by Western blot” value in data set [4] (rats fed T4-supplemented diet) is “barely detected”. The “thyroid detectability by 99mTcO4 scintigraphy” value in data set [4] (rats fed T4-supplemented diet for 11 days) is “not detectable”.
